SMILES strings stand for the structures. Values after ≈ are worked out from the molar mass of the structure shown. Like-named read-outs stand apart in the source and are kept apart here.

We go through four molecules from patent publication US6833389B2, “Use of thiamphenicol and derivatives thereof for the preparation of pharmaceutical compositions useful in the treatment of Chlamydia pneumoniae infections” (Zambon Group S.p.A., priority 2000, dated 2004).

Test [1] has as its system Chlamydia pneumoniae. Particulars: background statement; cited from earlier work.
Test [2] deals with Chlamydia pneumoniae. Description: MIC against Chlamydia pneumoniae strains in Hep-2 cell monolayers (inhibition of inclusion formation). The format is cell-based. As for the experimental part:
Chlamydia pneumoniae TW183 and Chlamydia pneumoniae 2023 were obtained from American Type Culture Collection. The other strains (No. 9 isolated) were clinically isolated in the period 1997-1999. […] Monolayers of Hep-2 cells were prepared by seeding 2×10^5 cell/ml in EMEM with 10% fetal calf serum supplemented with L-glutammine, on 12 mm cover slips and left at 35° C., 5% CO2 for 24 to 48 hours for confluent growth. The growth medium was removed and Hep-2 monolayers were inoculated with the different strains at predetermined concentration calculated to give 3-5×10^2 inclusions for well. The monolayers, inoculated with Chlamydia pneumoniae were centrifuged at 1700 g for 60 minutes at 30° C. […] In positive control no antibiotic was added and negative control were considered wells not inoculated with Chlamydia pneumoniae. […] All tests were run in duplicate. The number of inclusions were counted and the MIC (the lowest concentration at which complete inhibition of inclusion formation was observed) was determined.

Where [3] appears, read: Chlamydia pneumoniae, 72 h, MIC range over the 11 Chlamydia pneumoniae strains, Hep-2 cells, 3 days, read-out: MIC.
Setting [4] is: Chlamydia pneumoniae, ATCC2023, strain ATCC 2023, test I, read-out: MIC.
The mark [5] stands for this setting: Chlamydia pneumoniae, strain 1 (clinical isolate), test I, read-out: MIC.
Setting [6] is: Chlamydia pneumoniae, strain 2 (clinical isolate), test I, read-out: MIC.
Setting [7] is: Chlamydia pneumoniae, strain 2 (clinical isolate), test II, read-out: MIC.
The mark [8] stands for this setting: Chlamydia pneumoniae, strain 3 (clinical isolate), test I, read-out: MIC.
Where [9] appears, read: Chlamydia pneumoniae, strain 3 (clinical isolate), test II, read-out: MIC.
The mark [10] stands for this setting: Chlamydia pneumoniae, strain 4 (clinical isolate), test I, read-out: MIC.
The mark [11] stands for this setting: Chlamydia pneumoniae, strain 4 (clinical isolate), test II, read-out: MIC.
The mark [12] stands for this setting: Chlamydia pneumoniae, strain 5 (clinical isolate), test I, read-out: MIC.
[13] abbreviates: Chlamydia pneumoniae, strain 5 (clinical isolate), test II, read-out: MIC.
The mark [14] stands for this setting: Chlamydia pneumoniae, strain 6 (clinical isolate), test II, read-out: MIC.
The mark [15] stands for this setting: Chlamydia pneumoniae, strain 7 (clinical isolate), test I, read-out: MIC.
[16] abbreviates: Chlamydia pneumoniae, strain 7 (clinical isolate), test II, read-out: MIC.
The mark [17] stands for this setting: Chlamydia pneumoniae, strain 8 (clinical isolate), test I, read-out: MIC.
[18] abbreviates: Chlamydia pneumoniae, strain 8 (clinical isolate), test II, read-out: MIC.
[19] abbreviates: Chlamydia pneumoniae, strain 9 (clinical isolate), test I, read-out: MIC.
Where [20] appears, read: Chlamydia pneumoniae, strain TW 183, test II, read-out: MIC.

As to `CC[C@H]1OC(=O)[C@H](C)[C@@H](O[C@H]2C[C@@](C)(OC)[C@@H](O)[C@H](C)O2)[C@H](C)[C@@H](O[C@@H]2O[C@H](C)C[C@H](N(C)C)[C@H]2O)[C@](C)(O)C[C@@H](C)CN(C)[C@H](C)[C@@H](O)[C@]1(C)O` [Azithromycin, azithromycin], the “activity in vitro against Chlamydia pneumoniae” value in test [1] is given as “active”. Moreover, the MIC was 0.06 to 0.5 µg/mL (≈ 0.0801 to 0.668 µM) in test [2] (setting [3]); 0.06 µg/mL (≈ 0.0801 µM) in test [2] (setting [4]); 0.5 µg/mL (≈ 0.668 µM) in test [2] (setting [5]); 0.06 µg/mL (≈ 0.0801 µM) in test [2] (setting [6]); 0.25 µg/mL (≈ 0.334 µM) in test [2] (setting [7]); 0.06 µg/mL (≈ 0.0801 µM) in test [2] (setting [8]). Further, the MIC is 0.06 µg/mL (≈ 0.0801 µM) in test [2] (setting [9]); 0.5 µg/mL (≈ 0.668 µM) in test [2] (setting [10]); 0.5 µg/mL (≈ 0.668 µM) in test [2] (setting [11]); 0.25 µg/mL (≈ 0.334 µM) in test [2] (setting [12]); 0.25 µg/mL (≈ 0.334 µM) in test [2] (setting [13]); 0.25 µg/mL (≈ 0.334 µM) in test [2] (setting [14]). The MIC is 0.25 µg/mL (≈ 0.334 µM) in test [2] (setting [15]); 0.25 µg/mL (≈ 0.334 µM) in test [2] (setting [16]); 0.25 µg/mL (≈ 0.334 µM) in test [2] (setting [17]); 0.25 µg/mL (≈ 0.334 µM) in test [2] (setting [18]); 0.5 µg/mL (≈ 0.668 µM) in test [2] (setting [19]); 0.25 µg/mL (≈ 0.334 µM) in test [2] (setting [20]).

For `CO/N=C(\C(=O)N[C@@H]1C(=O)N2C(C(=O)O)=C(CSc3nc(=O)c(=O)[nH]n3C)CS[C@H]12)c1csc(N)n1` [Ceftriaxone, ceftriaxone], the MIC in test [2] (setting [3]) is over 16 µg/mL.

In the case of `C[C@H]1c2cccc(O)c2C(=O)C2=C(O)[C@]3(O)C(=O)C(C(N)=O)=C(O)[C@@H](N(C)C)[C@@H]3[C@@H](O)[C@@H]21` [Doxycycline, doxycycline], the MIC is 0.06 to 0.25 µg/mL (≈ 0.135 to 0.563 µM) in test [2] (setting [3]); 0.06 µg/mL (≈ 0.135 µM) in test [2] (setting [4]); 0.06 µg/mL (≈ 0.135 µM) in test [2] (Chlamydia pneumoniae, ATCC2023, strain ATCC 2023, test II, read-out: MIC); 0.06 µg/mL (≈ 0.135 µM) in test [2] (setting [5]); 0.125 µg/mL (≈ 0.281 µM) in test [2] (Chlamydia pneumoniae, strain 1 (clinical isolate), test II, read-out: MIC); 0.125 µg/mL (≈ 0.281 µM) in test [2] (setting [6]). The MIC is 0.125 µg/mL (≈ 0.281 µM) in test [2] (setting [7]); 0.125 µg/mL (≈ 0.281 µM) in test [2] (setting [8]); 0.125 µg/mL (≈ 0.281 µM) in test [2] (setting [9]); 0.06 µg/mL (≈ 0.135 µM) in test [2] (setting [10]); 0.06 µg/mL (≈ 0.135 µM) in test [2] (setting [11]); 0.125 µg/mL (≈ 0.281 µM) in test [2] (setting [12]). For the same molecule, the MIC in test [2] (setting [13]) worked out at 0.06 µg/mL (≈ 0.135 µM); in test [2] (Chlamydia pneumoniae, strain 6 (clinical isolate), test I, read-out: MIC), 0.06 µg/mL (≈ 0.135 µM); in test [2] (setting [14]), 0.06 µg/mL (≈ 0.135 µM); in test [2] (setting [15]) it was 0.06 µg/mL (≈ 0.135 µM); in test [2] (setting [16]), 0.06 µg/mL (≈ 0.135 µM); in test [2] (setting [17]), 0.25 µg/mL (≈ 0.563 µM). In addition, the MIC in test [2] (setting [18]) stood at 0.06 µg/mL (≈ 0.135 µM); in test [2] (setting [19]), 0.25 µg/mL (≈ 0.563 µM); in test [2] (Chlamydia pneumoniae, strain 9 (clinical isolate), test II, read-out: MIC), 0.25 µg/mL (≈ 0.563 µM); in test [2] (Chlamydia pneumoniae, strain TW 183, test I, read-out: MIC), 0.125 µg/mL (≈ 0.281 µM); in test [2] (setting [20]) it was 0.25 µg/mL (≈ 0.563 µM).

For the molecule `CN(C)[C@@H]1C(O)=C(C(N)=O)C(=O)[C@@]2(O)C(O)=C3C(=O)c4c(O)cccc4[C@@](C)(O)[C@H]3C[C@@H]12.Cl` [Tetracycline, tetracycline hydrochloride], the MIC in test [2] (MIC range over the 11 Chlamydia pneumoniae strains, Hep-2 cells, 3 days) was 0.06 to 0.5 µg/mL; in test [2] (strain 1 (clinical isolate), test I) it was 0.06 µg/mL; in test [2] (strain 1 (clinical isolate), test II), 0.06 µg/mL; in test [2] (strain 2 (clinical isolate), test I) it was 0.06 µg/mL; in test [2] (strain 2 (clinical isolate), test II), 0.06 µg/mL; in test [2] (strain 3 (clinical isolate), test I), 0.125 µg/mL. For the same molecule, the MIC was 0.125 µg/mL in test [2] (strain 3 (clinical isolate), test II); 0.125 µg/mL in test [2] (strain 4 (clinical isolate), test I); 0.5 µg/mL in test [2] (strain 4 (clinical isolate), test II); 0.125 µg/mL in test [2] (strain 5 (clinical isolate), test I); 0.25 µg/mL in test [2] (strain 5 (clinical isolate), test II); 0.06 µg/mL in test [2] (strain 6 (clinical isolate), test I). The MIC amounted to 0.5 µg/mL in test [2] (strain 6 (clinical isolate), test II); 0.125 µg/mL in test [2] (strain 7 (clinical isolate), test I); 0.125 µg/mL in test [2] (strain 7 (clinical isolate), test II); 0.06 µg/mL in test [2] (strain 8 (clinical isolate), test I); 0.06 µg/mL in test [2] (strain 8 (clinical isolate), test II); 0.06 µg/mL in test [2] (strain 9 (clinical isolate), test I). In addition, the MIC in test [2] (strain 9 (clinical isolate), test II) was 0.5 µg/mL; in test [2] (strain ATCC 2023, test I) it was 0.06 µg/mL; in test [2] (strain ATCC 2023, test II), 0.125 µg/mL; in test [2] (strain TW 183, test I) it was 0.06 µg/mL; in test [2] (strain TW 183, test II), 0.06 µg/mL.

One may read the MIC as the least concentration at which growth counts as inhibited.
